The IC50 is the concentration needed to halve the response being measured.

Our source for the IC50 values is US9670227B2, “Thienopyrimidine derivatives, a process for their preparation and pharmaceutical compositions containing them” (LES LABORATOIRES SERVIER, priority 2013, dated 2017).

One experiment addresses Mcl-1 protein (UniProtKB primary accession number: Q07820) (Homo sapiens, UniProt Q07820). As to the kind of experiment: Inhibition of Mcl-1 by fluorescence polarisation, Method 1. Format: binding. The following applies: read-out: IC50 (M) Mcl-1 FP. Put shortly: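 Binding was measured as fluorescence polarisation of a fluorescein-labelled ligand (1 nM) displaced from Mcl-1 (5 nM), both final. Compounds ran as 11-point series with final DMSO at 5%.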

The test system of experiment [1] is H929 multiple myeloma tumour line. The experiment is described as follows: In vitro cytotoxicity, Microculture Tetrazolium Assay. It is filed as cell-based. As to conditions: H929 cells, 48 hours exposure, MTT, read-out: IC50 (μM) MTT H929. As for the experimental part: The cytotoxicity studies were carried out on the H929 multiple myeloma tumour line.
The cells are distributed onto microplates and exposed to the test compounds for 48 hours.

Setting [2] is: fluorescence polarisation, Method 1, or Method 2.
Where [3] appears, read: fluorescence polarisation test, Method 2 values are underlined in the patent (underlining not visible here).

Where two headings read alike, the source gives them in different places.

Mcl-1 protein, sequence (Q07820 whole entry): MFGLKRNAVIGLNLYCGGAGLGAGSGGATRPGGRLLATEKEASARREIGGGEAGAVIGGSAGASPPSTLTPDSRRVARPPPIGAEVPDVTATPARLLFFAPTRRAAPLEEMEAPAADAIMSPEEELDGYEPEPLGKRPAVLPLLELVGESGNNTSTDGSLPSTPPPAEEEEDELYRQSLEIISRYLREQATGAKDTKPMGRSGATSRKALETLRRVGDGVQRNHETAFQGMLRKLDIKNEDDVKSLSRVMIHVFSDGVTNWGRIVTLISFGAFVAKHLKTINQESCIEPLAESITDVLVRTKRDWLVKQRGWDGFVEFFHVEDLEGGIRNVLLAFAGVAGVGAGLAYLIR

In the case of `COc1ccccc1CC(Oc1ncnc2sc(-c3cccc(O)c3)c(-c3ccc(OCCN4CCN(C)CC4)c(Cl)c3C)c12)C(=O)O` [Example 553, (2R)-2-{[(5Sa)-5-{3-chloro-2-methyl-4-[2-(4-methylpiperazin-1-yl)ethoxy]phenyl}-6-(3-hydroxyphenyl)thieno[2,3-d]pyrimidin-4-yl]oxy}-3-(2-methoxyphenyl)propanoic acid], the IC50 amounted to 1.1e-08 M on Mcl-1 protein (setting [2]) and 0.585 µM in experiment [1] (Homo sapiens, NCI-H929, 48 h).
Turning to `COc1ccccc1CC(Oc1ncnc2sc(-c3ccccc3)c(-c3ccc(OCCN4CCN(C)CC4)c(Cl)c3C)c12)C(=O)O` [Example 564, (2R)-2-[((5Sa)-5-{3-chloro-2-methyl-4-[2-(4-methylpiperazin-1-yl)ethoxy]phenyl}-6-phenylthieno[2,3-d]pyrimidin-4-yl)oxy]-3-(2-methoxyphenyl)propanoic acid], the IC50 on Mcl-1 protein (setting [2]) came to 8.5e-10 M; in experiment [1] (Homo sapiens, NCI-H929, 48 h), 0.202 µM.
`Cc1cncc(-c2nccc(COc3ccccc3CC(Oc3ncnc4sc(-c5ccc(F)cc5)c(-c5ccc(OCCN6CCN(C)CC6)c(Cl)c5C)c34)C(=O)O)n2)c1` [Example 122, (2R)-2-{[(5Sa)-5-{3-chloro-2-methyl-4-[2-(4-methylpiperazin-1-yl)ethoxy]phenyl}-6-(4-fluorophenyl)thieno[2,3-d]pyrimidin-4-yl]oxy}-3-(2-{[2-(5-methylpyridin-3-yl)pyrimidin-4-yl]methoxy}phenyl)propanoic acid]: the IC50 on Mcl-1 protein (setting [3]) is 3.8e-09 M; in experiment [1] (Homo sapiens, NCI-H929, 48 h) it was 0.01 µM.
Taken in the same sequence, the figures for `COCCN1CCC(COc2ccc(-c3c(-c4ccco4)sc4ncnc(OC(Cc5ccccc5OC)C(=O)O)c34)c(C)c2Cl)C1` [Example 312, (2R)-2-{[(5Sa)-5-(3-chloro-4-{[1-(2-methoxyethyl)pyrrolidin-3-yl]methoxy}-2-methylphenyl)-6-(furan-2-yl)thieno[2,3-d]pyrimidin-4-yl]oxy}-3-(2-methoxyphenyl)propanoic acid] were 8.9e-09 M and 1 µM.
Taken in the same sequence, the figures for `Cc1c(-c2c(-c3ccco3)sc3ncnc(OC(Cc4cccc(F)c4)C(=O)O)c23)ccc(OCCN2CCN(C)CC2)c1Cl` [Example 348, (2R)-2-{[(5Sa)-5-{3-chloro-2-methyl-4-[2-(4-methylpiperazin-1-yl)ethoxy]phenyl}-6-(furan-2-yl)thieno[2,3-d]pyrimidin-4-yl]oxy}-3-(3-fluorophenyl)propanoic acid] were 2.1e-08 M and 0.346 µM.
As for `CCn1nccc1COc1ccccc1CC(Oc1ncnc2sc(-c3ccc(F)cc3)c(-c3cnc(OCCN4CCN(C)CC4)c(Cl)c3C)c12)C(=O)O` [Example 652, (2R)-2-{[(5Ra)-5-{5-chloro-4-methyl-6-[2-(4-methylpiperazin-1-yl)ethoxy]pyridin-3-yl}-6-(4-fluorophenyl)thieno[2,3-d]pyrimidin-4-yl]oxy}-3-{2-[(1-ethyl-1H-pyrazol-5-yl)methoxy]phenyl}propanoic acid], the IC50 was determined as 4.7e-09 M on Mcl-1 protein (setting [2]) and 0.059 µM in experiment [1] (Homo sapiens, NCI-H929, 48 h).
In the same order, the values of `CCc1sc2ncnc(OC(Cc3ccccc3)C(=O)O)c2c1-c1cc(N)c(OCCN2CCN(C)CC2)c(Cl)c1C` [Example 437, (2R)-2-[((5Sa)-5-{5-amino-3-chloro-2-methyl-4-[2-(4-methylpiperazin-1-yl)ethoxy]phenyl}-6-ethylthieno[2,3-d]pyrimidin-4-yl)oxy]-3-phenylpropanoic acid] are 4.5e-08 M and 20.3 µM.
On to `Cc1c(-c2c(-c3ccc(F)cc3)sc3ncnc(OC(Cc4ccccc4OCc4ccnc(CC(C)C)n4)C(=O)O)c23)ccc(OCCN2CCN(C)CC2)c1Cl` [Example 38, (2R)-2-{[(5Sa)-5-{3-chloro-2-methyl-4-[2-(4-methylpiperazin-1-yl)ethoxy]phenyl}-6-(4-fluorophenyl)thieno[2,3-d]pyrimidin-4-yl]oxy}-3-(2-{[2-(2-methylpropyl)pyrimidin-4-yl]methoxy}phenyl)propanoic acid], for which the IC50 turned out to be 1.9e-09 M on Mcl-1 protein (setting [3]) and 0.016 µM in experiment [1] (Homo sapiens, NCI-H929, 48 h).
Turning to `CC#Cc1sc2ncnc(O[C@H](Cc3ccccc3OC)C(=O)O)c2c1-c1cc(C)c(OCCN2CCN(C)CC2)c(Cl)c1C` [Example 475, (2R)-2-{[(5Sa)-5-{3-chloro-2,5-dimethyl-4-[2-(4-methylpiperazin-1-yl)ethoxy]phenyl}-6-(prop-1-yn-1-yl)thieno[2,3-d]pyrimidin-4-yl]oxy}-3-(2-methoxyphenyl)propanoic acid], the IC50 amounted to 6.8e-09 M on Mcl-1 protein (setting [2]) and 1.12 µM in experiment [1].
Turning to `COc1ccccc1CC(Oc1ncnc2sc(-c3cccc(F)c3F)c(-c3ccc(OCCN4CCN(C)CC4)c(Cl)c3C)c12)C(=O)O` [Example 560, (2R)-2-{[(5Sa)-5-{3-chloro-2-methyl-4-[2-(4-methylpiperazin-1-yl)ethoxy]phenyl}-6-(2,3-difluorophenyl)thieno[2,3-d]pyrimidin-4-yl]oxy}-3-(2-methoxyphenyl)propanoic acid], the IC50 at Mcl-1 protein (setting [2]) turned out to be 1.1e-08 M; in experiment [1] (Homo sapiens, NCI-H929, 48 h), 0.128 µM.
For the molecule `COc1ccccc1CC(Oc1ncnc2sc(-c3ccc(F)c(OCC(F)(F)F)c3)c(-c3ccc(OCCN4CCN(C)CC4)c(Cl)c3C)c12)C(=O)O` [Example 535, (2R)-2-[(5Sa)-5-{3-chloro-2-methyl-4-[2-(4-methylpiperazin-1-yl)ethoxy]phenyl}-6-[4-fluoro-3-(2,2,2-trifluoroethoxy)phenyl]thieno[2,3-d]pyrimidin-4-yl)oxy]-3-(2-methoxyphenyl)propanoic acid], the IC50 on Mcl-1 protein (setting [2]) was determined as 1.3e-07 M; in experiment [1] (Homo sapiens, NCI-H929, 48 h), 1.84 µM.
Turning to `Cc1c(-c2c(-c3ccc(F)o3)sc3ncnc(OC(Cc4ccccc4OCc4ccncn4)C(=O)O)c23)ccc(OCCN2CCN(C)CC2)c1Cl` [Example 179, (2R)-2-{[(5Sa)-5-{3-chloro-2-methyl-4-[2-(4-methylpiperazin-1-yl)ethoxy]phenyl}-6-(5-fluorofuran-2-yl)thieno[2,3-d]pyrimidin-4-yl]oxy}-3-[2-(pyrimidin-4-ylmethoxy)phenyl]propanoic acid], the IC50 at Mcl-1 protein (setting [3]) is 5e-09 M; in experiment [1] (Homo sapiens, NCI-H929, 48 h), 0.03 µM.
In the same order, the values of `CCCNC(=O)COc1ccccc1CC(Oc1ncnc2sc(-c3ccc(F)o3)c(-c3ccc(OCCN4CCN(C)CC4)c(Cl)c3C)c12)C(=O)O` [Example 154, (2R)-2-{[(5Sa)-5-{3-chloro-2-methyl-4-[2-(4-methylpiperazin-1-yl)ethoxy]phenyl}-6-(5-fluorofuran-2-yl)thieno[2,3-d]pyrimidin-4-yl]oxy}-3-{2-[2-oxo-2-(propylamino)ethoxy]phenyl}propanoic acid] are 6.6e-09 M and 0.1 µM.
Take `Cc1c(-c2c(-c3ccco3)sc3ncnc(OC(Cc4ccccc4OCc4nccc5ccccc45)C(=O)O)c23)ccc(OCCN2CCN(C)CC2)c1Cl` [Example 284, (2R)-2-{[(5Sa)-5-{3-chloro-2-methyl-4-[2-(4-methylpiperazin-1-yl)ethoxy]phenyl}-6-(furan-2-yl)thieno[2,3-d]pyrimidin-4-yl]oxy}-3-[2-(isoquinolin-1-ylmethoxy)phenyl]propanoic acid]: the IC50 amounted to 4.8e-08 M on Mcl-1 protein (setting [3]) and 1.79 µM in experiment [1] (Homo sapiens, NCI-H929, 48 h).
Take `COCCNC(=O)COc1ccccc1CC(Oc1ncnc2sc(-c3ccc(F)o3)c(-c3ccc(OCCN4CCN(C)CC4)c(Cl)c3C)c12)C(=O)O` [Example 157, (2R)-2-{[(5Sa)-5-{3-chloro-2-methyl-4-[2-(4-methylpiperazin-1-yl)ethoxy]phenyl}-6-(5-fluorofuran-2-yl)thieno[2,3-d]pyrimidin-4-yl]oxy}-3-(2-{2-[(2-methoxyethyl)amino]-2-oxoethoxy}phenyl)propanoic acid]: the IC50 at Mcl-1 protein (setting [3]) was determined as 7e-09 M; in experiment [1] (Homo sapiens, NCI-H929, 48 h), 0.286 µM.
For the molecule `CC#Cc1sc2ncnc(OC(Cc3ccccc3OC)C(=O)O)c2c1-c1cc(F)c(OCCN2CCN(C)CC2)c(Cl)c1C` [Example 476, (2R)-2-{[(5Sa)-5-{3-chloro-5-fluoro-2-methyl-4-[2-(4-methylpiperazin-1-yl)ethoxy]phenyl}-6-(prop-1-yn-1-yl)thieno[2,3-d]pyrimidin-4-yl]oxy}-3-(2-methoxyphenyl)propanoic acid], the IC50 on Mcl-1 protein (setting [2]) came out at 2e-08 M; in experiment [1] (Homo sapiens, NCI-H929, 48 h) it was 1.03 µM.
In the same order, the values of `CCc1sc2ncnc(OC(Cc3ccccc3)C(=O)O)c2c1-c1ccc(OCCN(C)C)c(Cl)c1C` [Example 407, (2R)-2-[((5Sa)-5-{3-chloro-4-[2-(dimethylamino)ethoxy]-2-methylphenyl}-6-ethylthieno[2,3-d]pyrimidin-4-yl)oxy]-3-phenylpropanoic acid] are 1.1e-07 M and 7.33 µM.
`CCC#Cc1sc2ncnc(OC(Cc3ccccc3OC)C(=O)O)c2c1-c1ccc(OCCN2CCN(C)CC2)c(Cl)c1C` [Example 573, (2R)-2-{[6-(but-1-yn-1-yl)-(5Sa)-5-{3-chloro-2-methyl-4-[2-(4-methylpiperazin-1-yl)ethoxy]phenyl}thieno[2,3-d]pyrimidin-4-yl]oxy}-3-(2-methoxyphenyl)propanoic acid]: the IC50 came to 1.1e-08 M on Mcl-1 protein (setting [2]) and 0.366 µM in experiment [1] (Homo sapiens, NCI-H929, 48 h).
As for `Cc1c(-c2c(-c3ccco3)sc3ncnc(OC(Cc4ccccc4OCc4cn(C)cn4)C(=O)O)c23)ccc(OCCN2CCN(C)CC2)c1Cl` [Example 267, (2R)-2-{[(5Sa)-5-{3-chloro-2-methyl-4-[2-(4-methylpiperazin-1-yl)ethoxy]phenyl}-6-(furan-2-yl)thieno[2,3-d]pyrimidin-4-yl]oxy}-3-{2-[(1-methyl-1H-imidazol-4-yl)methoxy]phenyl}propanoic acid], the IC50 was found to be 8.8e-09 M on Mcl-1 protein (setting [3]) and 1.6 µM in experiment [1] (Homo sapiens, NCI-H929, 48 h).
